Assay results taken from patent publication US20250186437A1, “CARBOLINE COMPOUNDS AND USE THEREOF” (PTC Therapeutics, Inc., priority 2021, published 2025).

system: MOLM-13 cells; assay: MOLM-13 Cell Proliferation Assay (indicator of DHODH inhibition); format: cell-based; details: Homo sapiens, 72 Hours of culture, CellTiter-Glo, no uridine
Summary of the method: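 Low-passage MOLM-13 cells (10^4/well) in RPMI 1640 + 10% FBS exposed to compound (0.5% DMSO final) for 72 h at 37 °C, 5% CO2. Viability read by CellTiter-Glo luminescence; growth reflects de novo pyrimidine synthesis dependent on DHODH.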

IC50	Structure (SMILES)
7.4 nM	Cc1ccnc(N2CCc3c([nH]c4ccc(Cl)cc34)C2c2cnc(N3CCOCC3)nc2)n1 (stereo not drawn) [Compound 312, 6-chloro-2-(4-methylpyrimidin-2-yl)-1-[2-(morpholin-4-yl)pyrimidin-5-yl]-2,3,4,9-tetrahydro-1H-pyrido[3,4-b]indole]
22.2 nM	FC(F)(F)c1ccnc(N2CCc3c([nH]c4ccc(-n5cccc5)cc34)C2c2cnc(N3CCOCC3)nc2)n1 (stereo not drawn) [Compound 314, 1-[2-(morpholin-4-yl)pyrimidin-5-yl]-6-(1H-pyrrol-1-yl)-2-[4-(trifluoromethyl)pyrimidin-2-yl]-2,3,4,9-tetrahydro-1H-pyrido[3,4-b]indole]
82.1 nM	FC(F)(F)c1ccnc(N2CCc3c([nH]c4ccc(Cl)cc34)C2c2ccc(Cl)nc2Cl)n1 (stereo not drawn) [Compound 319, 6-chloro-1-(2,6-dichloropyridin-3-yl)-2-[4-(trifluoromethyl)pyrimidin-2-yl]-2,3,4,9-tetrahydro-1H-pyrido[3,4-b]indole]
25.9 nM	Cc1ccc(C2c3[nH]c4ccc(Cl)cc4c3CCN2c2ncnc(C)n2)cc1 (stereo not drawn) [Compound 322, 6-chloro-1-(4-methylphenyl)-2-(4-methyl-1,3,5-triazin-2-yl)-2,3,4,9-tetrahydro-1H-pyrido[3,4-b]indole]
3.6 nM	O=[N+]([O-])c1ccc2[nH]c3c(c2c1)CCN(c1nccc(C(F)(F)F)n1)C3c1cnc(N2CCOCC2)nc1 (stereo not drawn) [Compound 323, 1-[2-(morpholin-4-yl)pyrimidin-5-yl]-6-nitro-2-[4-(trifluoromethyl)pyrimidin-2-yl]-2,3,4,9-tetrahydro-1H-pyrido[3,4-b]indole]
29.7 nM	O=[N+]([O-])c1c(Cl)ccc2[nH]c3c(c12)CCN(c1nccc(C(F)(F)F)n1)C3c1cnc(N2CCOCC2)nc1 (stereo not drawn) [Compound 326, 6-chloro-1-[2-(morpholin-4-yl)pyrimidin-5-yl]-5-nitro-2-[4-(trifluoromethyl)pyrimidin-2-yl]-2,3,4,9-tetrahydro-1H-pyrido[3,4-b]indole]
35.4 nM	CN(C)c1ccc2[nH]c3c(c2c1)CCN(c1nccc(C(F)(F)F)n1)C3c1cnc(N2CCOCC2)nc1 (stereo not drawn) [Compound 329, N,N-dimethyl-1-[2-(morpholin-4-yl)pyrimidin-5-yl]-2-[4-(trifluoromethyl)pyrimidin-2-yl]-2,3,4,9-tetrahydro-1H-pyrido[3,4-b]indol-6-amine]
11.8 nM	Cc1ccc(C2c3[nH]c4ccc(Cl)cc4c3CCN2c2nccc(C)n2)cc1 (stereo not drawn) [Compound 332, 6-chloro-1-(4-methylphenyl)-2-(4-methylpyrimidin-2-yl)-2,3,4,9-tetrahydro-1H-pyrido[3,4-b]indole]
13 nM	FC(F)c1ccnc(N2CCc3c([nH]c4ccc(Cl)cc34)C2c2cnc(N3CCOCC3)nc2)n1 (stereo not drawn) [Compound 334, 6-chloro-2-[4-(difluoromethyl)pyrimidin-2-yl]-1-[2-(morpholin-4-yl)pyrimidin-5-yl]-2,3,4,9-tetrahydro-1H-pyrido[3,4-b]indole]
7.6 nM	FC(F)(F)c1ccnc(N2CCc3c([nH]c4ccc(Cl)cc34)C2c2cnc(N3CC4CC3CO4)nc2)n1 (stereo not drawn) [Compound 335, 6-chloro-1-[2-(2-oxa-5-azabicyclo[2.2.1]heptan-5-yl)pyrimidin-5-yl]-2-[4-(trifluoromethyl)pyrimidin-2-yl]-2,3,4,9-tetrahydro-1H-pyrido[3,4-b]indole]
6.8 nM	Fc1ccccc1C1c2[nH]c3ccc(Cl)cc3c2CCN1c1nccc(C(F)(F)F)n1 (stereo not drawn) [Compound 341, 6-chloro-1-(2-fluorophenyl)-2-[4-(trifluoromethyl)pyrimidin-2-yl]-2,3,4,9-tetrahydro-1H-pyrido[3,4-b]indole]
1 nM	Cc1cc(C)nc(N2CCc3c([nH]c4ccc(Cl)cc34)C2c2ccc(C)c(F)c2F)n1 (stereo not drawn) [Compound 342, 6-chloro-1-(2,3-difluoro-4-methylphenyl)-2-(4,6-dimethylpyrimidin-2-yl)-2,3,4,9-tetrahydro-1H-pyrido[3,4-b]indole]
9.5 nM	FC(F)(F)c1ccnc(N2CCc3c([nH]c4ccc(Cl)cc34)C2c2cnc(N3CCC3)nc2)n1 (stereo not drawn) [Compound 344, 1-[2-(azetidin-1-yl)pyrimidin-5-yl]-6-chloro-2-[4-(trifluoromethyl)pyrimidin-2-yl]-2,3,4,9-tetrahydro-1H-pyrido[3,4-b]indole]
3 nM	FC(F)(F)c1ccnc(N2CCc3c([nH]c4ccc(Cl)cc34)C2c2ccc(Cl)cc2)n1 (stereo not drawn) [Compound 349, 6-chloro-1-(4-chlorophenyl)-2-[4-(trifluoromethyl)pyrimidin-2-yl]-2,3,4,9-tetrahydro-1H-pyrido[3,4-b]indole]
5.7 nM	Oc1ccccc1C1c2[nH]c3ccc(Cl)cc3c2CCN1c1nccc(C(F)(F)F)n1 (stereo not drawn) [Compound 353, 2-{6-chloro-2-[4-(trifluoromethyl)pyrimidin-2-yl]-2,3,4,9-tetrahydro-1H-pyrido[3,4-b]indol-1-yl}phenol]
2.2 nM	Cc1ccc(C2c3[nH]c4ccc(Cl)cc4c3CCN2c2nccc(C(F)(F)F)n2)cc1F (stereo not drawn) [Compound 354, 6-chloro-1-(3-fluoro-4-methylphenyl)-2-[4-(trifluoromethyl)pyrimidin-2-yl]-2,3,4,9-tetrahydro-1H-pyrido[3,4-b]indole]

Continued, compound first:

Structure (SMILES)	IC50
Cc1nc(C)nc(N2CCc3c([nH]c4ccc([N+](=O)[O-])cc34)C2c2cnc(N3CCOCC3)nc2)n1 (stereo not drawn) [Compound 313, 2-(4,6-dimethyl-1,3,5-triazin-2-yl)-1-[2-(morpholin-4-yl)pyrimidin-5-yl]-6-nitro-2,3,4,9-tetrahydro-1H-pyrido[3,4-b]indole]	18.1 nM
CCCCN(CCCC)c1nc(C)nc(N2CCc3c([nH]c4ccc(Cl)cc34)C2c2cnc(N3CCOCC3)nc2)n1 (stereo not drawn) [Compound 315, N,N-dibutyl-4-{6-chloro-1-[2-(morpholin-4-yl)pyrimidin-5-yl]-1,3,4,9-tetrahydro-2H-pyrido[3,4-b]indol-2-yl}-6-methyl-1,3,5-triazin-2-amine]	11.7 nM
CCCCOc1nc(C)nc(N2CCc3c([nH]c4ccc(Cl)cc34)C2c2cnc(N3CCOCC3)nc2)n1 (stereo not drawn) [Compound 318, 2-(4-butoxy-6-methyl-1,3,5-triazin-2-yl)-6-chloro-1-[2-(morpholin-4-yl)pyrimidin-5-yl]-2,3,4,9-tetrahydro-1H-pyrido[3,4-b]indole]	4.3 nM
Cc1nc(C)nc(N2CCc3c([nH]c4c(N)cc(Cl)cc34)C2c2ccc(N3CCOCC3)nc2)n1 (stereo not drawn) [Compound 321, 6-chloro-2-(4,6-dimethyl-1,3,5-triazin-2-yl)-1-[6-(morpholin-4-yl)pyridin-3-yl]-2,3,4,9-tetrahydro-1H-pyrido[3,4-b]indol-8-amine]	7 nM
Cc1nc(C)nc(N2CCc3c([nH]c4ccc(Cl)c([N+](=O)[O-])c34)C2c2cnc(N3CCOCC3)nc2)n1 (stereo not drawn) [Compound 325, 4-[5-[6-chloro-2-(4,6-dimethyl-1,3,5-triazin-2-yl)-5-nitro-1,3,4,9-tetrahydropyrido[3,4-b]indol-1-yl]pyrimidin-2-yl]morpholine]	167 nM
Cc1nc(C)nc(N2CCc3c([nH]c4ccc(Cl)c(N)c34)C2c2cnc(N3CCOCC3)nc2)n1 (stereo not drawn) [Compound 327, 6-chloro-2-(4,6-dimethyl-1,3,5-triazin-2-yl)-1-[2-(morpholin-4-yl)pyrimidin-5-yl]-2,3,4,9-tetrahydro-1H-pyrido[3,4-b]indol-5-amine]	31.9 nM
Cc1nc(C)nc(N2CCc3c([nH]c4ccc(N(C)C)cc34)C2c2cnc(N3CCOCC3)nc2)n1 (stereo not drawn) [Compound 331, 2-(4,6-dimethyl-1,3,5-triazin-2-yl)-N,N-dimethyl-1-[2-(morpholin-4-yl)pyrimidin-5-yl]-2,3,4,9-tetrahydro-1H-pyrido[3,4-b]indol-6-amine]	102 nM
Cc1nc(C)nc(N2CCc3c([nH]c4ccc(Cl)cc34)C2c2cnc(N3CC4CC3CO4)nc2)n1 (stereo not drawn) [Compound 336, 6-chloro-2-(4,6-dimethyl-1,3,5-triazin-2-yl)-1-[2-(2-oxa-5-azabicyclo[2.2.1]heptan-5-yl)pyrimidin-5-yl]-2,3,4,9-tetrahydro-1H-pyrido[3,4-b]indole]	52.2 nM
FC(F)(F)c1ccnc(N2CCc3c([nH]c4ccc(Cl)cc34)C2c2cnc(N3C4CCC3COC4)nc2)n1 (stereo not drawn) [Compound 337, 6-chloro-1-[2-(3-oxa-8-azabicyclo[3.2.1]octan-8-yl)pyrimidin-5-yl]-2-[4-(trifluoromethyl)pyrimidin-2-yl]-2,3,4,9-tetrahydro-1H-pyrido[3,4-b]indole]	8.2 nM
Cc1nc(C)nc(N2CCc3c([nH]c4ccc(Cl)cc34)C2c2cnc(N3C4CCC3COC4)nc2)n1 (stereo not drawn) [Compound 338, 6-chloro-2-(4,6-dimethyl-1,3,5-triazin-2-yl)-1-[2-(3-oxa-8-azabicyclo[3.2.1]octan-8-yl)pyrimidin-5-yl]-2,3,4,9-tetrahydro-1H-pyrido[3,4-b]indole]	35 nM
Cc1nc(C)nc(N2CCc3c([nH]c4c(O)cc(Cl)cc34)C2c2ccc(N3CCOCC3)nc2)n1 (stereo not drawn) [Compound 339, 6-chloro-2-(4,6-dimethyl-1,3,5-triazin-2-yl)-1-[6-(morpholin-4-yl)pyridin-3-yl]-2,3,4,9-tetrahydro-1H-pyrido[3,4-b]indol-8-ol]	13.5 nM
Cc1nc(C)nc(N2CCc3c([nH]c4ccc(Cl)cc34)C2c2cnc(N3CCC3)nc2)n1 (stereo not drawn) [Compound 345, 1-[2-(azetidin-1-yl)pyrimidin-5-yl]-6-chloro-2-(4,6-dimethyl-1,3,5-triazin-2-yl)-2,3,4,9-tetrahydro-1H-pyrido[3,4-b]indole]	43.2 nM
CSc1ncc(C2c3[nH]c4ccc(Cl)cc4c3CCN2c2nc(C)nc(C)n2)cn1 (stereo not drawn) [Compound 346, 6-chloro-2-(4,6-dimethyl-1,3,5-triazin-2-yl)-1-[2-(methylsulfanyl)pyrimidin-5-yl]-2,3,4,9-tetrahydro-1H-pyrido[3,4-b]indole]	5.2 nM
Cc1ccnc(N2CCc3c([nH]c4c(N)cc(Cl)cc34)C2c2ccc(N3CCOCC3)nc2)n1 (stereo not drawn) [Compound 351, 6-chloro-2-(4-methylpyrimidin-2-yl)-1-[6-(morpholin-4-yl)pyridin-3-yl]-2,3,4,9-tetrahydro-1H-pyrido[3,4-b]indol-8-amine]	2.1 nM
